Test results as given in patent US20260184675A1, “CHIRAL ISOMERIC SULFITE COMPOUND AND APPLICATION THEREOF” (Chengdu Hanova BioSciences Co., Ltd, priority 2024, published 2026).

What was measured:
[1] = system: eggs of Spodoptera litura; assay: Effect on hatching of eggs of Spodoptera litura, egg piece soaking; type: in vivo; settings: 500 ppm; for Hatching rate (%), Replicate 1 / Hatching rate (%), Replicate 2 / Hatching rate (%), Replicate 3 / Number of unhatched larvae 4 days after insecticide delivery, Replicate 1 / Number of unhatched larvae 4 days after insecticide delivery, Replicate 2 / Number of unhatched larvae 4 days after insecticide delivery, Replicate 3: Spodoptera litura eggs; for Hatching rate (%), Replicate 1 / Hatching rate (%), Replicate 2 / Hatching rate (%), Replicate 3: 4 days after delivery; for Number of unhatched larvae 4 days after insecticide delivery, Replicate 1 / Number of unhatched larvae 4 days after insecticide delivery, Replicate 2 / Number of unhatched larvae 4 days after insecticide delivery, Replicate 3: soaked 10 minutes
Experimental: • (1) Preparation of paper containing eggs: the egg mass was cut into small pieces, each containing about 60 eggs, soaked in a preformulated test agent for 10 minutes together with paper for egg raising (concentration of each compound of 500 ppm). After taken out, absorbent paper was used to absorb the excess solution adhered to the paper for egg raising and egg pieces. (2) Cultivation: Each egg piece was separately placed in a glass test tube (5.0 cm in height, 2.5 cm in diameter, the same below), which was sealed with plastic paper punctured with fine holes using insect needles and cultivated in an artificial climate chamber at a temperature of (24±1° C.), a relative humidity of (80±10) %, and a photoperiod of L:D=12:12. When the eggs developed until they were about to hatch, castor leaves with a diameter of about 3 cm were added for feeding the hatching larvae; • (3) Observation: the number of hatched and unhatched eggs per egg piece was checked and recorded, and the hatching rate of eggs was calculated according to the formula. Each treatment was repeated for 3 times. • (4) Survey of results: The experimental materials of each treatment group were regularly hydrated and moisturized, and the hatching of eggs was observed. On the 4th day after insecticide delivery, the number of hatched eggs for each treatment was recorded, and the survey of results was recorded in the original notebook. According to the experimental requirements and characteristics of agents, the survey time can be shortened or extended. • 1) Surveying and recording the number of hatched eggs for each treatment. • 2) Recording the developmental status of experimental eggs of Spodoptera litura, behavior status of nymphs, including abnormal phenomena such as delayed or stopped development of eggs of Spodoptera litura, etc. • (5) Calculation method: Based on the survey data, the prevention and control effect of each treatment was calculated according to the following formula, and the calculation results were kept to two decimal places. [formula] [formula]

eggs of Panonychus citri = assay: Effect on hatching of eggs of Panonychus citri, leaf disc method; type: in vivo; settings: 1 ppm; for Hatching rate (%), Replicate 1 / Hatching rate (%), Replicate 2 / Hatching rate (%), Replicate 3 / Number of hatched larvae 5 days after insecticide delivery, Replicate 1 / Number of hatched larvae 5 days after insecticide delivery, Replicate 2 / Number of hatched larvae 5 days after insecticide delivery, Replicate 3: Panonychus citri eggs; for Hatching rate (%), Replicate 1 / Hatching rate (%), Replicate 2 / Hatching rate (%), Replicate 3: 5 days after delivery; for Number of hatched larvae 5 days after insecticide delivery, Replicate 1 / Number of hatched larvae 5 days after insecticide delivery, Replicate 2 / Number of hatched larvae 5 days after insecticide delivery, Replicate 3: leaf disc
Experimental: • (1) Preparation of leaf discs containing eggs: 20 female adult mites of Tetranychus cinnabarinus were transferred onto leaf discs of Vicia faba with a diameter of 2.0 cm (with wetted filter paper at the bottom), then covered it with a lidded culture dish and cultivated under moisturizing conditions, the adult mites were removed within 36 hours and microscopic examination and counting were performed on leaf discs containing eggs. • (2) Investigation of egg population base: Before pesticide soaking, a microscopic examination was conducted on the egg basic number of each leaf disc, with 2 replicates set for each treatment. • (3) Pesticide soaking treatment: The leaf butterflies loaded with mite eggs were soaked in clear water and sulfite compounds for 10 seconds, respectively, then taken out and cultivated under moisturizing conditions. Each treatment should be repeated for no less than 3 times. • (4) Cultivation and observation: The […] were cultivated under normal conditions. Five days after insecticide delivery, the hatching status of mite eggs was investigated. • Note: The temperature and humidity conditions of the constant temperature and humidity incubator after the treatment should be controlled so as to avoid excessive temperature differences, which may cause generation and dripping of condensate water in the culture dish, resulting in abnormal death of eggs due to soaking in water; it is also necessary to ensure sufficient strong ambient light, without directing irradiating the leaves. • (5) Survey of Results: The experimental materials of each treatment group were regularly hydrated and moisturized, and the hatching of eggs was observed. On the 7th day after insecticide delivery, the number of hatched eggs for each treatment was recorded, and the survey of results was recorded in the original notebook. According to the experimental requirements and characteristics of agents, the survey time can be shortened or extended.
• 1) Surveying and recording the number of hatched eggs for each treatment. • 2) Photographing and recording whether there was any pesticide damage to the leaf discs of Vicia faba. • 3) Recording the developmental status of experimental mite eggs, behavior status of nymph mites, including abnormal phenomena such as delayed or stopped development of mite eggs, difficulty in breaking hull for nymph mites, or painful struggles after hatching, etc. • (6) Calculation method: Based on the survey data, the prevention and control effect of each treatment was calculated according to the following formula, and the calculation results were kept to two decimal places.
This test adopted the method in Test Example 1 of technical section, mainly used leaf disc method to explore the effect on hatching of eggs of Panonychus citri by compounds 1-(S,S), 1-(S,R), 1-(R,R), 1-(R,S), 1′-(S,S), 1′-(S,R), 1′-(R,R), 1′-(R,S), compound 1, compound 1′, S-10, R-10, S-10′, R-10′, compound 10, compound 10′, compound 19-(S,S), 19-(S,R), 19-(R,R), 19-(R,S), 19′-(S,S), 19′-(S,R), 19′-(R,R), 19′-(R,S), compound 19, and compound 19′. The concentration of all compounds was 1 ppm.

## CC(COc1ccc(Cl)cc1Cl)OS(=O)OCCF [1′-(S,S)]
[1]; listed as 1′-(S, S)
  Hatching rate (%), Replicate 1: 64.52%
  Hatching rate (%), Replicate 2: 63.79%
  Hatching rate (%), Replicate 3: 66.07%
  Number of unhatched larvae 4 days after insecticide delivery, Replicate 1: 22
  Number of unhatched larvae 4 days after insecticide delivery, Replicate 2: 21
  Number of unhatched larvae 4 days after insecticide delivery, Replicate 3: 19
Eggs of Panonychus citri; listed as 1′-(S, S)
  Hatching rate (%), Replicate 1: 14.73%
  Hatching rate (%), Replicate 2: 16.05%
  Hatching rate (%), Replicate 3: 16.67%
  Number of hatched larvae 5 days after insecticide delivery, Replicate 1: 19
  Number of hatched larvae 5 days after insecticide delivery, Replicate 2: 13
  Number of hatched larvae 5 days after insecticide delivery, Replicate 3: 18

## CC(COc1ccc(Cl)cc1Cl)OS(=O)OCCF [1′-(S,R)]
[1]
  inhibitory activity on the hatching of eggs of Spodoptera litura (in words): good inhibitory activities
[1]; listed as 1′-(S, R)
  Hatching rate (%), Replicate 1: 27.87%
  Hatching rate (%), Replicate 2: 26.98%
  Hatching rate (%), Replicate 3: 21.05%
  Number of unhatched larvae 4 days after insecticide delivery, Replicate 1: 44
  Number of unhatched larvae 4 days after insecticide delivery, Replicate 2: 46
  Number of unhatched larvae 4 days after insecticide delivery, Replicate 3: 45
Eggs of Panonychus citri
  inhibitory effect on the hatching of eggs of Panonychus citri (in words): good inhibitory effects
Eggs of Panonychus citri; listed as 1′-(S, R)
  Hatching rate (%), Replicate 1: 0.00%
  Hatching rate (%), Replicate 2: 0.00%
  Hatching rate (%), Replicate 3: 0.00%
  Number of hatched larvae 5 days after insecticide delivery, Replicate 1: 0
  Number of hatched larvae 5 days after insecticide delivery, Replicate 2: 0
  Number of hatched larvae 5 days after insecticide delivery, Replicate 3: 0

## CC(C)(COS(=O)OCCF)Oc1ccc(Cl)cc1Cl (centres unmarked) [R-10′]
[1]
  Hatching rate (%), Replicate 1: 61.82%
  Hatching rate (%), Replicate 2: 62.07%
  Hatching rate (%), Replicate 3: 63.64%
  Number of unhatched larvae 4 days after insecticide delivery, Replicate 1: 21
  Number of unhatched larvae 4 days after insecticide delivery, Replicate 2: 22
  Number of unhatched larvae 4 days after insecticide delivery, Replicate 3: 24
Eggs of Panonychus citri
  Hatching rate (%), Replicate 1: 10.29%
  Hatching rate (%), Replicate 2: 10.31%
  Hatching rate (%), Replicate 3: 9.62%
  Number of hatched larvae 5 days after insecticide delivery, Replicate 1: 14
  Number of hatched larvae 5 days after insecticide delivery, Replicate 2: 10
  Number of hatched larvae 5 days after insecticide delivery, Replicate 3: 10

## CC[C@@H](COS(=O)OCCF)Oc1ccc(Cl)cc1Cl (stereo partly drawn) [19′-(S,S)]
[1]
  inhibitory activity on the hatching of eggs of Spodoptera litura (in words): good inhibitory activities
[1]; listed as 19′-(S, S)
  Hatching rate (%), Replicate 1: 17.54%
  Hatching rate (%), Replicate 2: 19.70%
  Hatching rate (%), Replicate 3: 18.87%
  Number of unhatched larvae 4 days after insecticide delivery, Replicate 1: 47
  Number of unhatched larvae 4 days after insecticide delivery, Replicate 2: 53
  Number of unhatched larvae 4 days after insecticide delivery, Replicate 3: 43
Eggs of Panonychus citri
  inhibitory effect on the hatching of eggs of Panonychus citri (in words): good inhibitory effects
Eggs of Panonychus citri; listed as 19′-(S, S)
  Hatching rate (%), Replicate 1: 0.00%
  Hatching rate (%), Replicate 2: 0.00%
  Hatching rate (%), Replicate 3: 0.00%
  Number of hatched larvae 5 days after insecticide delivery, Replicate 1: 0
  Number of hatched larvae 5 days after insecticide delivery, Replicate 2: 0
  Number of hatched larvae 5 days after insecticide delivery, Replicate 3: 0

## CCC(COS(=O)OCCF)Oc1ccc(Cl)cc1Cl (centres unmarked) [Compound 19′]
[1]
  Hatching rate (%), Replicate 1: 32.76%
  Hatching rate (%), Replicate 2: 32.14%
  Hatching rate (%), Replicate 3: 35.94%
  Number of unhatched larvae 4 days after insecticide delivery, Replicate 1: 39
  Number of unhatched larvae 4 days after insecticide delivery, Replicate 2: 38
  Number of unhatched larvae 4 days after insecticide delivery, Replicate 3: 41
Eggs of Panonychus citri
  inhibitory effect on the hatching of eggs of Panonychus citri (in words): good inhibitory effects
  Hatching rate (%), Replicate 1: 0.00%
  Hatching rate (%), Replicate 2: 0.00%
  Hatching rate (%), Replicate 3: 0.00%
  Number of hatched larvae 5 days after insecticide delivery, Replicate 1: 0
  Number of hatched larvae 5 days after insecticide delivery, Replicate 2: 0
  Number of hatched larvae 5 days after insecticide delivery, Replicate 3: 0
